Source: patent publication US9963462B2 (priority 2015, dated 2018)

Columns and labels:
[1] = test system: BH4 levels in SK-N-BE (2) cells; assay: SKN-N-BE (2) cellular assay, BH4 levels by LC-MS; type: cell-based; conditions: Homo sapiens, SKNBE2, read-out: SK-N-BE(2) IC50, SK-N-BE (2) cells, BH4 levels by LC-MS
Description: SKN-N-BE(2) Cellular Assay: SK-N-BE (2) cells were seeded in sterile, 96-well plates and incubated for 12-24 hours at 37° C. with 5% CO2 supply. Media was removed and fresh DMEM/F-12 media (containing Glutamine & Pen/Strep but no FBS) was added. Compounds (at different concentrations) were added to different wells. The plates were then incubated for 6-48 hours at 37° C. with 5% CO2 supply. Plates were then centrifuged and the supernatant was removed. The plates were then optionally washed once with PBS. They were then sealed and stored at −80° C. or immediately used. The cells were lysed and the level of BH4 was assessed by LC-MS.
Compounds were assayed for SPR inhibitory activity using a SKN-N-BE (2) cellular assay according to the following procedure. SK-N-BE (2) cells were seeded in sterile, 96-well plates and incubated for 12-24 hours at 37° C. with 5% CO2 supply. Media was removed and fresh DMEM/F-12 media (containing Glutamine & Pen/Strep but no FBS) was added. Compounds (at different concentrations) were added to different wells. The plates were then incubated for 6-48 hours at 37° C. with 5% CO2 supply. Plates were then centrifuged and the supernatant was removed. The plates were then optionally washed once with PBS. They were then sealed and stored at −80° C. or immediately used in the next step. The cells were lysed and the levels of BH4 were assessed by LC-MS.

[2] = molecular target: SNAP-hSPR (sepiapterin reductase, SPR) (Homo sapiens, UniProt P35270); assay: biochemical; type: binding; conditions: terbium labelled SNAP-hSPR / SSZ labelled SNAP-EGFP; read-out: hTR-FRET IC50
Excerpt: TR-FRET Assay: A TR-FRET (homogeneous, time-resolved, fluorescence resonance energy transfer) assay was used to assess activity of compounds following standard assay conditions. […] Compounds were screened at different concentrations and IC50 values calculated.
Terbium labelled SNAP-hSPR and SSZ (sulfasalazine) labelled SNAP-EGFP were used as the protein pair in this assay. Compounds were screened at different concentrations, and 1050 and Kd values calculated.

[3] = test system: BH4 production in human peripheral blood mononuclear cells (PBMCs); assay: hPBMC assay, inhibition of BH4 production by LC-MS (anti-CD3/anti-CD28 stimulated); type: cell-based; conditions: PBMC, read-out: hPBMC IC50

Chain of SNAP-hSPR (sepiapterin reductase, SPR) (P35270 whole entry): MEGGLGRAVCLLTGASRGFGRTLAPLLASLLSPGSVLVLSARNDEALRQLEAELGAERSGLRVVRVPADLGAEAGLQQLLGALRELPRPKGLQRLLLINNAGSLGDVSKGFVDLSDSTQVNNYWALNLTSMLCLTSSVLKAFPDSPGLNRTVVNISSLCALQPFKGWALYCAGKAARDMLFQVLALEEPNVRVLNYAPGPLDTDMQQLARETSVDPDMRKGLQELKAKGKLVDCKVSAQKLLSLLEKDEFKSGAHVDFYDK

SMILES | IC50 [1] [nM] | IC50 [2] [nM] | IC50 [3] [nM]
Cc1c(C(=O)N2CCN(c3ccc(C#N)cc3)CC2)cnn1-c1nn2cccc2c(=O)[nH]1 [Q-0829] | 80 | 1 | –
Cc1c(C(=O)N2CCN(c3cccc(Cl)c3)CC2)cnn1-c1nn2cccc2c(=O)[nH]1 [Q-0830] | 41 | 1 | –
Cc1c(C(=O)N2CCN(c3cnccn3)CC2)cnn1-c1nn2cccc2c(=O)[nH]1 [Q-0831] | 400 | 2 | –
Cc1c(C(=O)N2CCC(C(F)(F)F)CC2)nnn1-c1nn2cccc2c(=O)[nH]1 [Q-0832] | 200 | 1 | –
Cc1c(C(=O)N2CCN(c3ccc(C(F)(F)F)cc3)CC2)cnn1-c1nn2cccc2c(=O)[nH]1 [Q-0833] | 200 | 6 | –
CCOC(=O)c1cn(-c2nn3cccc3c(=O)[nH]2)nn1 [Q-0839] | 1500 | 8 | –
Cc1c(C(=O)N2CCN(c3cccc(C(F)(F)F)c3)CC2)cnn1-c1nn2cccc2c(=O)[nH]1 [Q-0840] | 200 | 3 | –
Cc1c(C(=O)N2C[C@H]3CN(C(=O)OC(C)(C)C)C[C@H]32)cnn1-c1nn2cccc2c(=O)[nH]1 [Q-0842] | 700 | 2 | –
Cc1c(C(=O)N2CCN(c3ccccn3)CC2)cnn1-c1nn2cccc2c(=O)[nH]1 [Q-0843] | 200 | 1 | –
Cc1c(C(=O)N2CCC3C(C2)C3C(F)(F)F)cnn1-c1nn2cccc2c(=O)[nH]1 (centres unmarked) [Q-0844] | 200 | 1 | –
Cc1c(C(=O)N2CCN(c3ccc(C#N)cn3)CC2)cnn1-c1nn2cccc2c(=O)[nH]1 [Q-0845] | 400 | 3 | –
Cc1c(C(=O)N2CC3CN(c4ccccc4)CC3C2)cnn1-c1nn2cccc2c(=O)[nH]1 (centres unmarked) [Q-0846] | 200 | 2 | –
Cc1c(C(=O)N2CC3CN(C)CC3C2)cnn1-c1nn2cccc2c(=O)[nH]1 (centres unmarked) [Q-0847] | 8800 | 20 | –
Cc1c(C(=O)N2CCC3(CCNC3=O)CC2)cnn1-c1nn2cccc2c(=O)[nH]1 [Q-0848] | 10000 | 2 | –
Cc1c(C(=O)N2CCC(NC(=O)OC(C)(C)C)(C(F)(F)F)C2)cnn1-c1nn2cccc2c(=O)[nH]1 (centres unmarked) [Q-0852] | 800 | 2 | –
Cc1c(C(=O)N2CCn3cnnc3C2)cnn1-c1nn2cccc2c(=O)[nH]1 [Q-0853] | 10000 | 30 | –
Cc1c(C(=O)N2C3CCC2CN(c2ccc(C(F)(F)F)cn2)C3)cnn1-c1nn2cccc2c(=O)[nH]1 [Q-0854] | 200 | 3 | –
Cc1c(C(=O)N2CCC(C(C#N)C3CC3)CC2)cnn1-c1nn2cccc2c(=O)[nH]1 (centres unmarked) [Q-0855] | 100 | 1 | –
Cc1c(C(=O)N2CCN3CCC[C@H]3C2)cnn1-c1nn2cccc2c(=O)[nH]1 [Q-0856] | 1100 | 4 | –
Cc1c(C(=O)N2C[C@@H]3CN(C(=O)OC(C)(C)C)C[C@@H]32)cnn1-c1nn2cccc2c(=O)[nH]1 [Q-0857] | 800 | 3 | –
Cc1c(C(=O)N2CCn3c(nnc3C(F)(F)F)C2)cnn1-c1nn2cccc2c(=O)[nH]1 [Q-0859] | 8300 | 20 | –
Cc1c(C(=O)N2CCC3(CC2)CC3C(=O)N2CCOCC2)cnn1-c1nn2cccc2c(=O)[nH]1 (centres unmarked) [Q-1070] | – | 2 | 200

SMILES | IC50 [1] [nM] | IC50 [2] [nM] | IC50 [3] [nM]
Cc1c(C(=O)N2CCC2c2ccc(Cl)cc2)cnn1-c1nn2cccc2c(=O)[nH]1 (centres unmarked) [Q-1071] | – | 6 | 32
CC[C@@H](C#N)C1CCN(C(=O)c2cnn(-c3nc4c(c(=O)[nH]3)CCC4)c2C)CC1 [Q-1072] | – | 2 | 55
C=CCC(C#N)C1CCN(C(=O)c2cnn(-c3nc4c(c(=O)[nH]3)CCC4)c2C)CC1 (centres unmarked) [Q-1073] | – | 3 | 55
Cc1c(C(=O)N2CCC(c3noc(C(F)(F)F)n3)CC2)cnn1-c1nn2cccc2c(=O)[nH]1 [Q-1074] | – | 1 | 22
Cc1c(C(=O)N2CCC(c3noc(C(F)(F)F)n3)CC2)cnn1-c1nc2c(c(=O)[nH]1)CCC2 [Q-1075] | – | 2 | 17
Cc1c(C(=O)N2CCC(c3nccs3)CC2)cnn1-c1nc2c(c(=O)[nH]1)CCC2 [Q-1076] | – | 1 | 35
Cc1c(C(=O)N2CCC3(CC2)CC3C(=O)N2CCOCC2)cnn1-c1nc2c(c(=O)[nH]1)CCC2 (centres unmarked) [Q-1077] | – | 5 | 160
Cc1c(C(=O)N2CCc3nc(C(F)(F)F)sc3C2)cnn1-c1nn2cccc2c(=O)[nH]1 [Q-1078] | – | 5 | 36
Cc1c(C(=O)N2CCC(c3nc(-c4ccccc4)co3)CC2)cnn1-c1nc2c(c(=O)[nH]1)CCC2 [Q-1079] | – | 3 | 74
Cc1c(C(=O)N2CCC(c3nc(-c4ccccc4)co3)CC2)cnn1-c1nn2cccc2c(=O)[nH]1 [Q-1080] | – | 2 | 25
Cc1c(C(=O)N2CC3CCCC(C2)N3CC(F)(F)F)cnn1-c1nc2c(c(=O)[nH]1)CCC2 [Q-1081] | – | 2 | 130
Cc1c(C(=O)N2CC(N3CC(C(F)(F)F)C3)C2)cnn1-c1nn2cccc2c(=O)[nH]1 [Q-1082] | – | 4 | 120
Cc1c(C(=O)N2C3CC2CN(CC(F)(F)F)C3)cnn1-c1nn2cccc2c(=O)[nH]1 [Q-1083] | – | 1 | 68
Cc1c(C(=O)N2CCC(c3nc(-c4cccnc4)cs3)CC2)cnn1-c1nc2c(c(=O)[nH]1)CCC2 [Q-1084] | – | 2 | 13
Cc1c(C(=O)N2CCC(C(=O)N3CCC3)(C(F)(F)F)CC2)cnn1-c1nn2cccc2c(=O)[nH]1 [Q-1085] | – | 1 | 63
Cc1c(C(=O)N2CCC(C(=O)N3CCCCC3)(C(F)(F)F)CC2)cnn1-c1nn2cccc2c(=O)[nH]1 [Q-1086] | – | 1 | 84
Cc1c(C(=O)N2CCC(C3(C#N)CCC3)CC2)cnn1-c1nc2c(c(=O)[nH]1)CCC2 [Q-1087] | – | 2 | 29
Cc1c(C(=O)N2CCC3(CC2)CC3C(=O)N2CCC2)cnn1-c1nn2cccc2c(=O)[nH]1 (centres unmarked) [Q-1088] | – | 4 | 290
Cc1c(C(=O)N2CCC3(CC2)CC3C(=O)N2CCC2)cnn1-c1nc2c(c(=O)[nH]1)CCC2 (centres unmarked) [Q-1089] | – | 3 | 350
Cc1c(C(=O)N2CCC(c3nc(C(N)=O)cs3)CC2)cnn1-c1nc2c(c(=O)[nH]1)CCC2 [Q-1091] | – | 2 | 130
Cc1c(C(=O)N2CCC(O)(C3(C#N)CC3)CC2)cnn1-c1nn2cccc2c(=O)[nH]1 [Q-1092] | – | 1 | 330
Cc1c(C(=O)N2CCC(c3nc(C#N)cs3)CC2)cnn1-c1nn2cccc2c(=O)[nH]1 [Q-1093] | – | 1 | 95

SMILES | IC50 [1] [nM] | IC50 [2] [nM] | IC50 [3] [nM]
Cc1c(C(=O)N2C3CCC2CN(C2CC2)C3)cnn1-c1nn2cccc2c(=O)[nH]1 [Q-1094] | – | 1 | 99
C=C(C1CCN(C(=O)c2cnn(-c3nn4cccc4c(=O)[nH]3)c2C)CC1)C(F)(F)F [Q-1095] | – | 1 | 27
C=C(C1CCN(C(=O)c2cnn(-c3nc4c(c(=O)[nH]3)CCC4)c2C)CC1)C(F)(F)F [Q-1096] | – | 1 | 18
Cc1c(C(=O)N2CCC(c3nc(-c4cccnc4)cs3)CC2)cnn1-c1nn2cccc2c(=O)[nH]1 [Q-1097] | – | 1 | 24
Cc1c(C(=O)N2CCC(CCCF)C2)cnn1-c1nn2cccc2c(=O)[nH]1 (centres unmarked) [Q-1098] | – | 1 | 210
Cc1c(C(=O)N2CCC(c3nc(-c4ccccn4)cs3)CC2)cnn1-c1nn2cccc2c(=O)[nH]1 [Q-1099] | – | 1 | 60
Cc1c(C(=O)N2CCC(c3nc(-c4ccccn4)cs3)CC2)cnn1-c1nc2c(c(=O)[nH]1)CCC2 [Q-1100] | – | 1 | 31
Cc1c(C(=O)N2CCC(c3nc(-c4ccncc4)cs3)CC2)cnn1-c1nn2cccc2c(=O)[nH]1 [Q-1101] | – | 1 | 41
CCC(C#N)C1(F)CCN(C(=O)c2cnn(-c3nc4c(c(=O)[nH]3)CCC4)c2C)CC1 (centres unmarked) [Q-1102] | – | 1 | 58
CCC(C#N)C1=CCN(C(=O)c2cnn(-c3nc4c(c(=O)[nH]3)CCC4)c2C)CC1 (centres unmarked) [Q-1103] | – | 1 | 100
Cc1c(C(=O)N2CCC(c3nc(C#N)cs3)CC2)cnn1-c1nc2c(c(=O)[nH]1)CCC2 [Q-1104] | – | 3 | 110
Cc1c(C(=O)N2CCC(c3ccc(F)nc3)CC2)cnn1-c1nn2cccc2c(=O)[nH]1 [Q-1105] | – | 1 | 18
Cc1c(C(=O)N2CC3CC(C2)N3CC(F)(F)F)cnn1-c1nn2cccc2c(=O)[nH]1 [Q-1106] | – | 1 | 93
Cc1c(C(=O)N2C3CCC2CN(c2nccs2)C3)cnn1-c1nn2cccc2c(=O)[nH]1 [Q-1107] | – | 1 | 58
Cc1c(C(=O)N2CCC(c3nc(C(F)(F)F)cs3)CC2)cnn1-c1nn2cccc2c(=O)[nH]1 [Q-1108] | – | 1 | 50
Cc1c(C(=O)N2CC3CCCC(C2)C3(O)C(F)(F)F)cnn1-c1nn2cccc2c(=O)[nH]1 (centres unmarked) [Q-1109] | – | 1 | 46
C=CCC(C#N)(CC=C)C1CCN(C(=O)c2cnn(-c3nn4cccc4c(=O)[nH]3)c2C)CC1 [Q-1110] | – | 2 | 43
Cc1c(C(=O)N2CCC(c3cccnc3Cl)CC2)cnn1-c1nn2cccc2c(=O)[nH]1 [Q-1111] | – | 1 | 15
CCC(=O)C1CCN(C(=O)c2cnn(-c3nn4cccc4c(=O)[nH]3)c2C)CC1 [Q-1112] | – | 1 | 37
CCC(=O)C1CCN(C(=O)c2cnn(-c3nc4c(c(=O)[nH]3)CCC4)c2C)CC1 [Q-1113] | – | 1 | 16
